Results reported in patent US20100062993A1, “Adenosine Nucleotides as Dietary Supplements and as Agents in the Prevention of Cancer and the Metastasis Thereof” (priority 2008, published 2010).

Tested on: human cancer cell linings
Assay: Mice implanted with human cancer (tumor) cell linings: efficacy of MTA relative to SAMe
Type: in vivo
Description: It is therefore astonishing that MTA, in experimental results on mice implanted with tumor cell linings, was 10 times more efficacious than SAMe. Part of the pharmacodynamics is surely that MTA is toxic to many cancer cells that are deficient in the enzymes that are needed to process it. Yet this 10:1 efficacy ratio is inexplicable under the above suppositions!
This is extremely surprising in light of the above!

In the case of `CSC[C@H]1O[C@@H](n2cnc3c(N)ncnc32)[C@H](O)[C@@H]1O` [MTA, 5-deoxy-5-methylthioadenosine], the “efficacy relative to SAMe” value (mice implanted with human cancer cell linings, ratio versus SAMe) is reported as “more than 10 fold” and the “efficacy of MTA relative to SAMe (times more efficacious)” value (mice implanted with tumor cell linings, ratio versus SAMe (10:1)) is reported as 10 times.
